From patent US12077503B2, “Substituted cyclic amides and their use as herbicides” (FMC CORPORATION, priority 2015, dated 2024)

Tests used:
Type in all cases: in vivo
[1] = system: ivy-leaved morning glory (Ipomoea hederacea); assay: Test G Pre-Emergence Protocol; details: evaluated after 13 days
Description: (§1) Seeds of corn (Zea mays), giant foxtail (Setaria faberi), barnyardgrass (Echinochloa crus-galli), ivy-leaved morning glory (Ipomoea hederacea), redroot pigweed (Amaranthus retroflexus) and velvetleaf (Abutilon theophrasti) were sown in standard soil in pots. After cultivation for one day under controlled conditions in a glasshouse (at 24/16° C., day/night; 14 hours light; 65% humidity), the plants were sprayed with an aqueous spray solution derived from the formulation of the technical active ingredient in acetone/water (50:50) solution containing 0.5% Tween 20 (polyoxyethylene sorbitan monolaurate, CAS RN 9005-64-5) to give a final dose of 15.625, 62.5 or 250 g/ha of test compound.
(§2) The test plants were then grown on under controlled conditions in a glasshouse (at 24/16° C., day/night; 14 hours light; 65% humidity) and watered twice daily. After 13 days the test was evaluated (100=total damage to plant; 0=no damage to plant). A dash (-) means no test result.

[2] = system: corn (Zea mays); assay: Test G Pre-Emergence Protocol; details: evaluated after 13 days
Description: as §1, §2

[3] = system: barnyardgrass (Echinochloa crus-galli); assay: Test G Pre-Emergence Protocol; details: evaluated after 13 days
Description: as §1, §2

[4] = system: redroot pigweed (Amaranthus retroflexus); assay: Test G Pre-Emergence Protocol; details: evaluated after 13 days
Description: as §1, §2

[5] = system: velvetleaf (Abutilon theophrasti); assay: Test G Pre-Emergence Protocol; details: evaluated after 13 days
Description: as §1, §2

[6] = system: giant foxtail (Setaria faberi); assay: Test G Pre-Emergence Protocol; details: evaluated after 13 days
Description: as §1, §2

[7] = system: ivy-leaved morning glory (Ipomoea hederacea); assay: Test G Post-Emergence Protocol
Description: as §1, with “8 days” for “one day”
as §2

[8] = system: corn (Zea mays); assay: Test G Post-Emergence Protocol
Description: as §1, with “8 days” for “one day”
as §2

[9] = system: barnyardgrass (Echinochloa crus-galli); assay: Test G Post-Emergence Protocol
Description: as §1, with “8 days” for “one day”
as §2

[10] = system: redroot pigweed (Amaranthus retroflexus); assay: Test G Post-Emergence Protocol
Description: as §1, with “8 days” for “one day”
as §2

[11] = system: velvetleaf (Abutilon theophrasti); assay: Test G Post-Emergence Protocol
Description: as §1, with “8 days” for “one day”
as §2

[12] = system: giant foxtail (Setaria faberi); assay: Test G Post-Emergence Protocol
Description: as §1, with “8 days” for “one day”
as §2

[13] = system: wheat (Triticum aestivum); assay: Test A postemergence
From the text: (§3) Seeds of plant species selected from barnyardgrass (Echinochloa crus-galli), Kochia (Kochia scoparia), ragweed (common ragweed, Ambrosia elatior), ryegrass, Italian (Italian ryegrass, Lolium multiflorum), crabgrass, large (Digitaria sanguinalis), giant foxtail (Setaria faberii), green foxtail (Setaria viridis), morningglory (Ipomoea spp.), pigweed (Amaranthus retroflexus), velvetleaf (Abutilon theophrasti), wheat (Triticum aestivum), and corn (Zea mays) were planted into a blend of loam soil and sand and treated preemergence with a directed soil spray using test chemicals formulated in anon-phytotoxic solvent mixture which included a surfactant.
(§4) At the same time, plants selected from these crop and weed species and also blackgrass (Alopecurus myosuroides), and Galium (catchweed bedstraw, Galium aparine) were planted in pots containing the same blend of loam soil and sand and treated with postemergence applications of test chemicals formulated in the same manner. Plants ranged in height from 2 to 10 cm and were in the one- to two-leaf stage for the postemergence treatment. Treated plants and untreated controls were maintained in a greenhouse for approximately 10 d, after which time all treated plants were compared to untreated controls and visually evaluated for injury. Plant response ratings, summarized in Table A, are based on a 0 to 100 scale where 0 is no effect and 100 is complete control. A dash (-) response means no test result.

[14] = system: corn (Zea mays); assay: Test A postemergence
From the text: as §3, §4

[15] = system: ragweed (common ragweed, Ambrosia elatior); assay: Test A postemergence
From the text: as §3, §4

[16] = system: pigweed (Amaranthus retroflexus); assay: Test A postemergence
From the text: as §3, §4

[17] = system: blackgrass (Alopecurus myosuroides); assay: Test A postemergence
From the text: as §3, §4

[18] = system: barnyardgrass (Echinochloa crus-galli); assay: Test A postemergence
From the text: as §3, §4

[19] = system: ryegrass, Italian (Italian ryegrass, Lolium multiflorum); assay: Test A postemergence
From the text: as §3, §4

[20] = system: giant foxtail (Setaria faberii); assay: Test A postemergence
From the text: as §3, §4

[21] = system: Galium (catchweed bedstraw, Galium aparine); assay: Test A postemergence
From the text: as §3, §4

[22] = system: Kochia (Kochia scoparia); assay: Test A postemergence
From the text: as §3, §4

[23] = system: ragweed (common ragweed, Ambrosia elatior); assay: Test A preemergence; details: Preemergence
From the text: as §3, §4

[24] = system: pigweed (Amaranthus retroflexus); assay: Test A preemergence; details: Preemergence
From the text: as §3, §4

[25] = system: barnyardgrass (Echinochloa crus-galli); assay: Test A preemergence; details: Preemergence
From the text: as §3, §4

[26] = system: ryegrass, Italian (Italian ryegrass, Lolium multiflorum); assay: Test A preemergence; details: Preemergence
From the text: as §3, §4

[27] = system: giant foxtail (Setaria faberii); assay: Test A preemergence; details: Preemergence
From the text: as §3, §4

[28] = system: Kochia (Kochia scoparia); assay: Test A preemergence; details: Preemergence
From the text: as §3, §4

[29] = 62.5 g ai/ha, 100=total damage to plant, 0=no damage to plant
[30] = 15.625 g ai/ha, evaluated after 13 days (100=total damage to plant; 0=no damage to plant)
[31] = 62.5 g ai/ha, evaluated after 13 days
[32] = 250 g ai/ha, evaluated after 13 days
[33] = 125 g ai/ha, postemergence, visual injury rating on 0 to 100 scale (0 no effect, 100 complete control), approx. 10 d
[34] = Postemergence, 500 g ai/ha, 0 to 100 scale where 0 is no effect and 100 is complete control
[35] = 125 g ai/ha, visual injury after approximately 10 d, 0 to 100 scale where 0 is no effect and 100 is complete control
[36] = 500 g ai/ha, visual injury approx. 10 d

Q: Which results are given for CN1CC(c2ccc(C(F)(F)F)cc2)C(C(=O)Nc2cccc(Cl)c2[N+](=O)[O-])C1=O (racemic) [Compound 1639]?
A: Morning-glory, Ivy-leaved damage rating (100=total damage to plant; 0=no damage to plant) ([1]; 15.625 g ai/ha): 0; plant damage rating, Morningglory, Ivy-leaved [1, 29]: 0; Morningglory, Ivy-leaved damage rating (100=total damage to plant; 0=no damage to plant) ([1]; 250 g ai/ha): 0; Corn damage rating (100=total damage to plant; 0=no damage to plant) ([2]; 15.625 g ai/ha): 0; plant damage rating, Corn [2, 29]: 0; Corn damage rating (100=total damage to plant; 0=no damage to plant) ([2]; 250 g ai/ha): 0; Barnyardgrass damage rating (100=total damage to plant; 0=no damage to plant) ([3]; 15.625 g ai/ha): 0; plant damage rating, Barnyardgrass [3, 29]: 10; Barnyardgrass damage rating (100=total damage to plant; 0=no damage to plant) ([3]; 250 g ai/ha): 30; Pigweed, Redroot damage rating (100=total damage to plant; 0=no damage to plant) ([4]; 15.625 g ai/ha): 0; plant damage rating, Pigweed, Redroot [4, 29]: 20; Pigweed, Redroot damage rating (100=total damage to plant; 0=no damage to plant) ([4]; 250 g ai/ha): 30; Velvetleaf damage rating (100=total damage to plant; 0=no damage to plant) ([5]; 15.625 g ai/ha): 0; plant damage rating, Velvetleaf [5, 29]: 0; Velvetleaf damage rating (100=total damage to plant; 0=no damage to plant) ([5]; 250 g ai/ha): 0; Foxtail, Giant damage rating (100=total damage to plant; 0=no damage to plant) ([6]; 15.625 g ai/ha): 30; plant damage rating, Foxtail, Giant [6, 29]: 60; Foxtail, Giant damage rating (100=total damage to plant; 0=no damage to plant) ([6]; 250 g ai/ha): 80; Morningglory, Ivy-leaved damage rating [7, 30]: 0; Morningglory, Ivy-leaved damage rating (100=total damage to plant; 0=no damage to plant) [7, 31]: 10; damage to plant, Morningglory, Ivy-leaved (100=total damage to plant; 0=no damage to plant) [7, 32]: 20; Corn damage rating [8, 30]: 0; Corn damage rating (100=total damage to plant; 0=no damage to plant) [8, 31]: 0; damage to plant, Corn (100=total damage to plant; 0=no damage to plant) [8, 32]: 10; Barnyardgrass damage rating [9, 30]: 10; Barnyardgrass damage rating (100=total damage to plant; 0=no damage to plant) [9, 31]: 30; damage to plant, Barnyardgrass (100=total damage to plant; 0=no damage to plant) [9, 32]: 60; Pigweed, Redroot damage rating [10, 30]: 0; Pigweed, Redroot damage rating (100=total damage to plant; 0=no damage to plant) [10, 31]: 20; damage to plant, Pigweed, Redroot (100=total damage to plant; 0=no damage to plant) [10, 32]: 60; Velvetleaf damage rating [11, 30]: 0; Velvetleaf damage rating (100=total damage to plant; 0=no damage to plant) [11, 31]: 0; damage to plant, Velvetleaf (100=total damage to plant; 0=no damage to plant) [11, 32]: 20; Foxtail, Giant damage rating [12, 30]: 30; Foxtail, Giant damage rating (100=total damage to plant; 0=no damage to plant) [12, 31]: 70; damage to plant, Foxtail, Giant (100=total damage to plant; 0=no damage to plant) [12, 32]: 80

Q: How did the “Wheat plant response rating” value [13, 33] turn out when O=C1NCC(c2cc(Br)cs2)C1C(=O)Nc1cccc(F)c1F (racemic) [Compound 510] was run?
A: 0

Q: And the “Plant response rating, Wheat” value [13, 34]?
A: 0

Q: What about the “Corn plant response rating” value [14, 33] of the same compound?
A: 0

Q: What about the “Plant response rating, Corn” value [14, 34] of the same compound?
A: 0

Q: What about the “Ragweed plant response rating” value [15, 33] of the same compound?
A: 0

Q: And the “Plant response rating, Ragweed” value [15, 34]?
A: 30

Q: And the “Pigweed plant response rating” value [16, 33]?
A: 0

Q: What about the “Plant response rating, Pigweed” value [16, 34] of the same compound?
A: 0

Q: What about the “Blackgrass plant response rating” value [17, 33] of the same compound?
A: 0

Q: What about the “Plant response rating, Blackgrass” value [17, 34] of the same compound?
A: 40

Q: And the “Barnyardgrass plant response rating” value [18, 33]?
A: 60

Q: What about the “Plant response rating, Barnyardgrass” value [18, 34] of the same compound?
A: 70

Q: What about the “Ryegrass, Italian plant response rating” value [19, 33] of the same compound?
A: 0

Q: And the “Plant response rating, Ryegrass, Italian” value [19, 34]?
A: 20

Q: What about the “Foxtail, Giant plant response rating” value [20, 33] of the same compound?
A: 10

Q: What about the “Plant response rating, Foxtail, Giant” value [20, 34] of the same compound?
A: 30

Q: What about the “Galium plant response rating” value [21, 33] of the same compound?
A: 0

Q: What about the “Plant response rating, Galium” value [21, 34] of the same compound?
A: 0

Q: And the “Kochia plant response rating” value [22, 33]?
A: 0

Q: What about the “Plant response rating, Kochia” value [22, 34] of the same compound?
A: 40

Q: And the “Plant response rating, Ragweed” value [23, 35]?
A: 30

Q: And the “Ragweed plant response rating (0 to 100 scale, 0 is no effect, 100 is complete control)” value [23, 36]?
A: 50

Q: What about the “Plant response rating, Pigweed” value [24, 35] of the same compound?
A: 0

Q: And the “Pigweed plant response rating (0 to 100 scale, 0 is no effect, 100 is complete control)” value [24, 36]?
A: 0

Q: What about the “Plant response rating, Barnyardgrass” value [25, 35] of the same compound?
A: 60

Q: And the “Barnyardgrass plant response rating (0 to 100 scale, 0 is no effect, 100 is complete control)” value [25, 36]?
A: 80

Q: And the “Plant response rating, Ryegrass, Italian” value [26, 35]?
A: 0

Q: And the “Ryegrass, Italian plant response rating (0 to 100 scale, 0 is no effect, 100 is complete control)” value [26, 36]?
A: 10

Q: And the “Plant response rating, Foxtail, Giant” value [27, 35]?
A: 60

Q: And the “Foxtail, Giant plant response rating (0 to 100 scale, 0 is no effect, 100 is complete control)” value [27, 36]?
A: 70

Q: And the “Plant response rating, Kochia” value [28, 35]?
A: 30

Q: And the “Kochia plant response rating (0 to 100 scale, 0 is no effect, 100 is complete control)” value [28, 36]?
A: 50
